Assay results reported in US5079257A, “Indoloquinone compounds” (priority 1986, dated 1992).
Values after ≈ are worked out from the molar mass of the structure shown. Read-outs that look alike come from different tables or passages of the source.

How the values were obtained:
L1210 cells = experiment: L1210 activity (bioliquid assay), cytotoxicity; assay type: cell-based; settings: for IC50: Mus musculus, read-out: ID-50 L1210
From the text: The indoloquinones II (formula II) have been tested in respect of their cytotoxic activity against L1210 cells and R-1 cells (Rhabdomyosarcoma Cells) in a bioliquid assay at the department of oncology of the Free University of Amsterdam (Table I). In addition to this seven compounds (E.O. 1, E.O. 2, E.O. 4, E.O. 7, E.O. 9, E.O. 16 and E.O. 17) have been tested on L1210 activity in a clonogenic assay at TNO, Rijswijk. Further, the lowest active doses of the compounds E.O. 1, E.O. 2, E.O. 4 and E.O. 9 have been determined at TNO Rijswijk, according to the method described by Lamberts et al. [Oncology, 40, 301 (1983)]. (Table II). Eight indoloquinones (E.O. 1, E.O. 2, E.O. 4, E.O. 4A, E.O. 8, E.O. 9, E.O. 33 and E.O. 35) have been tested in a panel of five human tumour lines (TNO Rijswijk; Table III). From the latter group three indoloquinones (E.O. 1, E.O. 4 and E.O. 9) have been selected for a cytotoxicity study, involving five slowly growing human tumour lines (University of Freiburg; Table IV).
For this purpose, L1210 cells were grown, as suspension, in Falcon multi-wells (growth area: 9.6 cm^2) using RPMI supplemented with 15% FCS and 2-mercapto-ethanol (60 μmol) as medium. In this medium, the cells were continuously incubated with the compound to be tested at 37° C. in an atmosphere of 5% CO2 in humidified air for 48 hours. Thereupon they were counted on a Sysmex microcell counter (CC110).
(§1) The in vitro L1210 and R-1 activities of the indoloquinones (formula III), were also determined in the bioliquid assays as described above.

[1] = Half-wave reduction potentials / polarography (University of Utrecht); assay type: physicochemical; settings: for E1/2, halve wave reduction potential: Table IA, only the first (quinone) reduction potential; for half-wave potential E1.2, wave I: pH = 8 vs Ag/AgCl
From the text: *The halve wave reduction potentials (E1/2) have been determined at the
Pharmaceutical Laboratory of University of Utrecht. Only the first
(quinone) reduction potential has been given.
Additional evidence for the occurrence of a bioreductive activation mechanism during the cytotoxic action of indoloquinones (II) was obtained via electrochemical studies, which have been carried out at the Pharmaceutical Laboratory of the University of Utrecht. […]

[2] = tested on: R-1 cells (Rhabdomyosarcoma Cells); experiment: R-1 activity (bioliquid assay), cytotoxicity; assay type: cell-based; settings: Rhabdomyosarcoma cell, read-out: ID-50 R-1
From the text: The indoloquinones II (formula II) have been tested in respect of their cytotoxic activity against L1210 cells and R-1 cells (Rhabdomyosarcoma Cells) in a bioliquid assay at the department of oncology of the Free University of Amsterdam (Table I). […] (Table II). Eight indoloquinones (E.O. 1, E.O. 2, E.O. 4, E.O. 4A, E.O. 8, E.O. 9, E.O. 33 and E.O. 35) have been tested in a panel of five human tumour lines (TNO Rijswijk; Table III).
For the determination of the R-1 activity, Rhabdomyosarcoma cells were brought into Falcon multiwells (growth area: 9.6 cm^2) (~10^6 cells per dish) containing 3 ml of Dulbecco's medium supplemented with 10% Foeto Calf Serum (FCS). […] Thereupon the drug solution was removed and the cells were covered with fresh medium. After 48 hours the cells were trypsinized and counted on a Sysmex microcell counter (CC110).
as §1

Ovarian (MRI-H-207) line = assay type: in vivo, human
From the text: The xenograft experiments have been carried by Dr. H. H. Fiebig of the University of Freiburg [Lung-NSCLC (LXGF) line, Renal line, Breast line; See: H. H. Fiebig et al., Behring Inst. Mitt., 74 343] and by Dr. E. Boven of the Free University Hospital Amsterdam [Ovarian (MRI-H-207) line; See: E. Boven et al., Cancer Res., 45, 86 (1985) and E. Boven et al., Eur. J. Clin. Oncol., 21, 1253 (1985)].
Mice: C57B1 athymic (nu/nu) female mice, 8 to 10 weeks of age were used for s.c. bilateral implantation of tumour fragments 2 mm diameter.
Treatment: E.O. 9 was dissolved in saline at a concentration of 0.5 mg/ml prior to administration. Drug doses and schedules were derived from studies in experimental murine tumour systems and from orientation studies in non-tumour-bearing nude mice. Treatment was started i.v. when tumours measured 50-150 mm^3. After randomization a group of 6-7 tumour-bearing mice was treated and a group of 5-6 tumour-bearing mice served as control.
Evaluation of efficacy: Tumours were measured twice weekly in three dimensions. Efficacy was expressed as the mean of relative tumour volume in treated animals vs. that in control animals×100 (% T/C). The optimal value was calculated within 35 days after the last injection. Toxic death (dead mice within two weeks after the last injection) were excluded from the evaluation.
MRI-H-207: An undifferentiated adenocarcinoma kindly provided by Dr. A. E. Bogden, Worcester, Mass, with a doubling time of 3-5 days.

[3] = L1210, 48 h, Table IA, para-indoloquinone diesters
[4] = Table IA, para-indoloquinone diesters
[5] = 60 mg/kg, days of treatment 0,6,13,20
[6] = L1210, Table I, bioliquid assay, 48 hours

COC(=O)/C=C/c1c(C(=O)OC)c2c(n1C)C(=O)C=C(O)C2=O [E.O. 24, Methyl 5-hydroxy-3-methoxycarbonyl-1-methyl-2-[1H-indole-4,7-dione]acrylate]
IC50 (L1210 cells; [3]): > 10 µg/mL | E1/2, halve wave reduction potential [1]: -299 mV | IC50 [2, 4]: > 10 µg/mL

O=c1[nH]cc(F)c(=O)[nH]1 [5FU]
T/C % (Ovarian (MRI-H-207) line; [5]): 63% | toxic deaths (Ovarian (MRI-H-207) line; [5]): 0/7

N.N.O=C([O-])C1(C(=O)[O-])CCC1.[Pt+2] [Carboplatin]
toxic deaths (Ovarian (MRI-H-207) line; 60 mg/kg, days of treatment 0.6): 0/6

COC(=O)/C=C/c1[nH]c2c(c1C(=O)OC)C(=O)C(OC)=CC2=O [E.O. 29, Methyl 5-methoxy-3-methoxycarbonyl-2-[1H-indole-4,7-dione]acrylate]
IC50 (L1210 cells; [3]): 2.2 µg/mL (≈ 6.89 µM) | E1/2, halve wave reduction potential [1]: -211 mV | IC50 [2, 4]: 4.9 µg/mL (≈ 15.3 µM)

CN(C)c1nc(N(C)C)nc(N(C)C)n1 [HMM]
toxic deaths (Ovarian (MRI-H-207) line; 150 mg/kg, days of treatment 0,2,4,6): 1/6

COC(=O)/C=C/c1c(C(=O)OC)c2c(n1C)C(=O)C=C(N1CCOCC1)C2=O [E.O. 55, Methyl 3-methoxycarbonyl-1-methyl-5-morpholino-2-[1H-indole-4,7-dione]acrylate]
IC50 (L1210 cells; [3]): 1.4 µg/mL (≈ 3.6 µM) | E1/2, halve wave reduction potential [1]: -240 mV | IC50 [2, 4]: 8.9 µg/mL (≈ 22.9 µM)

Cn1c(/C=C/CO)c(CO)c2c1C(=O)C=C(N1CCC(O)CC1)C2=O [E.O. 11, 3-Hydroxymethyl-5-(4-hydroxypiperidino)-1-methyl-2-[1H-indole-4,7-dione]prop-β-en-α-ol]
IC50 (L1210 cells; [6]): > 10 µg/mL | ID-50 L1210 (L1210 cells; Table VI, 2880 min): > 10 µg/mL | half-wave potential E1.2, wave I [1]: -430 mV | IC50 ([2]; Table I, bioliquid assay): > 10 µg/mL | IC50 ([2]; Table VI): > 10 µg/mL

Cn1c(/C=C/CO)c(CO)c2c1C(=O)C=C(N1CCOCC1)C2=O [E.O. 12, 3-Hydroxymethyl-1-methyl-5-morpholino-2-[1H-indole-4,7-dione]prop-β-en-α-ol]
IC50 (L1210 cells; [6]): 3.8 µg/mL (≈ 11.4 µM) | half-wave potential E1.2, wave I [1]: -420 mV | IC50 ([2]; Table I, bioliquid assay): > 10 µg/mL | IC50 ([2]; Table VI): > 10 µg/mL
